Entries after “also recorded” stand apart in the source; their conditions may differ.
Tests used:
[1] = molecular target: T1, Trx (E13K, D16K, E95K, E103K) (Homo sapiens, UniProt P10599, D16K/E103K/E13K/E95K); experiment: X-ray crystallography of Tavocept-derived mesna adduct on Trx; assay type: binding; details: Tavocept 40 mM
T1 construct: 6xHis with TEV site (N, cleaved yes); made in house; host or cells: E. coli BL21(DE3)
T1 sequence (P10599 1-105 E13K/D16K/E95K/E103K): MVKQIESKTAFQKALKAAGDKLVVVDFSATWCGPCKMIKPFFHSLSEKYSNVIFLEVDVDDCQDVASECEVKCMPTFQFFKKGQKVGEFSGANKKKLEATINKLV
Protocol: Adduct was prepared as described above with some modifications designed to increase the likelihood of success in crystallization of the protein. […] This reaction was incubated for 1 hour at 30° C. followed by overnight incubation at 4° C. […] Aliquots of this solution were analyzed by ESI LC-MS to confirm the presence of adduct(s) prior to initiation of crystallization experiments.
These initial broad screens produced crystals under a wide range of conditions (data not shown) and the screens used included: (i) PEGION, CRYSTALS HT, and PEGRX (Hampton Research) and (ii) JCSG and BASIC (JENA Biosciences). Multiple rounds of optimization were completed and included fine screens, varying the protein concentration and varying the protein to reservoir ratios to obtain diffraction quality crystals. In the Trx pH 9.0/8.5 structure (adduct formed at pH 9.0, crystals grown at pH 8.5), the best crystals were obtained in 20% ethanol, 0.1 M Tris (at 60 mg/mL Trx protein) and diffracted to 2.5 Å (C2 space group). In Trx pH 9.0/7.0 (adduct formed at pH 9.0, crystals grown at pH 7.0), the best crystals were obtained in 20% PEG3350, 0.2 M KCl (60 mg/mL Trx protein) and diffracted to 2.8 Å (C2 space group). In Trx pH 7.0/7.0 (adduct formed at pH 7.0, crystals grown at pH 7.0), the best crystals were obtained in 28% PEG3350, 0.2M KCl (160 mg/mL Trx protein) and diffracted to 1.85 Å resolution (P21 space group).
The solution obtained was consistent with four molecules in the crystal asymmetric unit. […] Molecules C and D were substantially rebuilt and the Tavocept-derived mesna adduct added after protein rebuilding was complete. The structure solution was supported by contiguous electron density for the entire chain trace of each molecule, landmark side chain density features matching the amino acid sequence including cysteines, absence of phi-psi violations, and final R/Rfree values in the normal range. […] For the Trx pH 9.0/8.5 structure, residual density observed near Cys69 of molecule A was modeled as a Tavocept-derived mesna adduct in a dual conformation. […]

Recombinant human ERCC1 = molecular target: T2, Recombinant human ERCC1 (Homo sapiens, UniProt P07992); experiment: LC-MS of trypsin-digested ERCC1 after incubation with Tavocept; assay type: binding; details: 20 mM Tavocept, LC-MS of tryptic fragments
T2 construct: 6xHis (N); purchased Creative BioMart; host or cells: E. coli
T2 sequence (P07992 whole entry, the tested form may be a part): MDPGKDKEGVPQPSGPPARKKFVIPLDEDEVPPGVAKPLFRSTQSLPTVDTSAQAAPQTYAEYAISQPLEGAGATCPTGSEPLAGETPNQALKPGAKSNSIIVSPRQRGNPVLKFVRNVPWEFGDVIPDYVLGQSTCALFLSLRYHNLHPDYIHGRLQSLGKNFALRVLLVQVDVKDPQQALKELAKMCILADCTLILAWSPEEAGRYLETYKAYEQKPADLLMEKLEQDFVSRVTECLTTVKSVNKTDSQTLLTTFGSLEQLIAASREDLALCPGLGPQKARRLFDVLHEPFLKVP
Protocol: Recombinant human ERCC1 (1 mg; 27.8 nanomoles, Creative BioMart) was reduced using a vast excess of dithiothreitol (DTT, 100 μl of a 500 mM stock) in ammonium bicarbonate (40 mM, pH 8.0) at 37° C. for 75 minutes (total reaction volume was 900 μL). […] Each 800 μl reaction was then chromatographed over a NAP10 column. This step removed unreacted Tavocept and was used for the buffer control simply to ensure that both samples received the same handling/manipulation during the course of the experiment. The elution volume from each NAP10 column was 1.2 mL. […] Trypsin digestion reactions were incubated for 1 hour at 30° C. and then for 17 hours at room temperature (23° C.). Following the Trypsin digest, the samples were lyophilized to dryness overnight and then resuspended in a volume of approximately 100 μL water and analyzed using LC-MS. A Symmetry C18 HPLC column (Waters, Franklin, Mass.; 3.5 μm; 4.6 mm×75 mm) and a Waters Alliance liquid chromatography system (Waters 2695, Franklin, Mass., USA) coupled to a Micromass single quadropole mass detector (Micromass ZMD, Manchester, UK) were used to analyze fragments from trypsin-digested human ERCC1. The mobile phase contained 0.1% of formic acid throughout the run and the flow rate was 0.35 mL/min. […]

human cancer cell lines = experiment: Paclitaxel- and platinum-induced cytotoxicity; assay type: cell-based
Excerpt: (§1) Tavocept mediates the non-enzymatic xenobiotic modification of sulfur-containing amino acid residues (e.g., cysteine) on proteins. As an engineered, non-naturally occurring agent (i.e., xenobiotic), Tavocept is autocatalytic and requires no protein cofactor to cause the xenobiotic modification of cysteine, but appears to be specific for cysteine residues located within a particular structural context (i.e., not all cysteines in a protein are so modified). Tavocept-mediated, xenobiotic modification represents a novel mechanism of action for a cancer treating agent and can be compared to a degree with post-translational modifications of cysteine residues in proteins (see, Table 3, below).

[2] = system: human breast, ovarian and lymphoma cancer cell lines; experiment: Paclitaxel induced apoptosis (PARP cleavage, Bcl-2 phosphorylation, DNA laddering); assay type: cell-based
Excerpt: as §1

RNR subunit 1 = RNR subunit 1 (Homo sapiens, UniProt P23921); experiment: Whole protein Mass Spectroscopy of RNR1; assay type: binding
Chain of RNR subunit 1 (P23921 whole entry): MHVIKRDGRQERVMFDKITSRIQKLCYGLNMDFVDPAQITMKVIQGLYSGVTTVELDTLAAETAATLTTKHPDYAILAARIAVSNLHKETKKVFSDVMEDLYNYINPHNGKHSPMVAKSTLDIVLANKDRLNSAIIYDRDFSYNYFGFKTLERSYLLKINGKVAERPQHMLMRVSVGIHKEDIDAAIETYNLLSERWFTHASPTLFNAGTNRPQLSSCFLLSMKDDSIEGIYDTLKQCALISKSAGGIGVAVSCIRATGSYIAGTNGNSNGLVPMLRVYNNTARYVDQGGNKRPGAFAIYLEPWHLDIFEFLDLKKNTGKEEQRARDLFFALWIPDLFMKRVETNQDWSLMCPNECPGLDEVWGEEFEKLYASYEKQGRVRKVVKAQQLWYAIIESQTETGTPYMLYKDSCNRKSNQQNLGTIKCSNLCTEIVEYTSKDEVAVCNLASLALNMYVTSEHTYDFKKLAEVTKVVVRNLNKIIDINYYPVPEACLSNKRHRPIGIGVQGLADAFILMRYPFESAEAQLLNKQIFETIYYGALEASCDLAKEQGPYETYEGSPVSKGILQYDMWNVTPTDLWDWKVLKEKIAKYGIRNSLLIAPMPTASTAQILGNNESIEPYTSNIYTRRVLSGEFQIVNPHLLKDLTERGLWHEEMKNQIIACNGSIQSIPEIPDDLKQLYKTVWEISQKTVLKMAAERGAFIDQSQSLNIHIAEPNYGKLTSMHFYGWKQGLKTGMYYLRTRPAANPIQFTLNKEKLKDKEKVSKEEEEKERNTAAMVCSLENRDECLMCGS
Excerpt: RNR1 contains a total of sixteen (16) cysteine residues and at least five (5) of these cysteine residues are required for catalysis, including: Cys218, Cys429, Cys444, Cys787, and Cys790. It is hypothesized that the Tavocept-derived mesna adducts identified on the RNR1 protein using whole protein Mass Spectroscopy (see, FIG. 49) may alter or modulate RNR activity.

O=S(=O)([O-])CCSSCCS(=O)(=O)[O-].[Na+].[Na+] [Tavocept, disodium 2,2′-dithio-bis-ethane sulfonate]
Mesna adduct site on Trx by X-ray ([1]; Trx pH 7.0/7.0 structure): clearly visible on Cys69 in both molecules A and B
Mesna adduct site on Trx by X-ray ([1]; Trx pH 9.0/7.0 structure): clearly visible on both Cys69 and Cys62 in both molecules A and B
Mesna adduct site on Trx by X-ray ([1]; Trx pH 9.0/8.5 structure): clearly visible on Cys69 in both molecules A and B
ERCC1 cysteine residue carrying Tavocept-derived mesna adduct (Recombinant human ERCC1): Cys238; also recorded: Cys274
interference with paclitaxel- and platinum-induced cytotoxicity (human cancer cell lines): not to interfere
interference with paclitaxel induced apoptosis [2]: does not interfere
number of Tavocept-derived mesna adducts on cysteine residues within RNR1 (RNR subunit 1): ≤ 8
